Laboratory results taken from patent US20240238380A1, “COMPOSITION FOR COMBINATION THERAPY COMPRISING GROWTH DIFFERENTIATION FACTOR-15 VARIANT AND GLUCAGON-LIKE PEPTIDE-1 RECEPTOR AGONIST” (YUHAN CORPORATION, priority 2021, published 2024).
Marks after values point to notes of the source that are not given here.

Experiments:
[1] = target: T1, GFRAL/RET/SRE-luc-overexpressing HEK293 cell line (Homo sapiens, UniProt Q6UXV0); assay: Functional activity of long-acting GDF15 fusion protein (Bright-Glo luciferase assay); type: cell-based; settings: relative to FM9-6+Fc_hole (Emax 100%)
T1 construct: expressed in transfected cells; host or cells: HEK293 (human embryonic kidney 293), overexpressing GFRAL, RET and an SRE-luciferase reporter
T1 sequence (Q6UXV0 19-394, species assumed): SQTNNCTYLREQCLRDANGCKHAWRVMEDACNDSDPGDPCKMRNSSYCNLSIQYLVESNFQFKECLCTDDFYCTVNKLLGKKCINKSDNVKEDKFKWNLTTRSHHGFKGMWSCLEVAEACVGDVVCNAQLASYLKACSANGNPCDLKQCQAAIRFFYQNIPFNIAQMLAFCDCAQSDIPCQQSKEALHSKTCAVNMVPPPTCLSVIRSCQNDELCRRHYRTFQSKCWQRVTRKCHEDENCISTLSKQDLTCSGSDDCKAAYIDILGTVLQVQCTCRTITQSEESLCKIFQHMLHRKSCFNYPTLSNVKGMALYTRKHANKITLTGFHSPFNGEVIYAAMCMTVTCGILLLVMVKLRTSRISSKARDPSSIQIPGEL
T1 sequence (P07949 29-1114 partner, species assumed): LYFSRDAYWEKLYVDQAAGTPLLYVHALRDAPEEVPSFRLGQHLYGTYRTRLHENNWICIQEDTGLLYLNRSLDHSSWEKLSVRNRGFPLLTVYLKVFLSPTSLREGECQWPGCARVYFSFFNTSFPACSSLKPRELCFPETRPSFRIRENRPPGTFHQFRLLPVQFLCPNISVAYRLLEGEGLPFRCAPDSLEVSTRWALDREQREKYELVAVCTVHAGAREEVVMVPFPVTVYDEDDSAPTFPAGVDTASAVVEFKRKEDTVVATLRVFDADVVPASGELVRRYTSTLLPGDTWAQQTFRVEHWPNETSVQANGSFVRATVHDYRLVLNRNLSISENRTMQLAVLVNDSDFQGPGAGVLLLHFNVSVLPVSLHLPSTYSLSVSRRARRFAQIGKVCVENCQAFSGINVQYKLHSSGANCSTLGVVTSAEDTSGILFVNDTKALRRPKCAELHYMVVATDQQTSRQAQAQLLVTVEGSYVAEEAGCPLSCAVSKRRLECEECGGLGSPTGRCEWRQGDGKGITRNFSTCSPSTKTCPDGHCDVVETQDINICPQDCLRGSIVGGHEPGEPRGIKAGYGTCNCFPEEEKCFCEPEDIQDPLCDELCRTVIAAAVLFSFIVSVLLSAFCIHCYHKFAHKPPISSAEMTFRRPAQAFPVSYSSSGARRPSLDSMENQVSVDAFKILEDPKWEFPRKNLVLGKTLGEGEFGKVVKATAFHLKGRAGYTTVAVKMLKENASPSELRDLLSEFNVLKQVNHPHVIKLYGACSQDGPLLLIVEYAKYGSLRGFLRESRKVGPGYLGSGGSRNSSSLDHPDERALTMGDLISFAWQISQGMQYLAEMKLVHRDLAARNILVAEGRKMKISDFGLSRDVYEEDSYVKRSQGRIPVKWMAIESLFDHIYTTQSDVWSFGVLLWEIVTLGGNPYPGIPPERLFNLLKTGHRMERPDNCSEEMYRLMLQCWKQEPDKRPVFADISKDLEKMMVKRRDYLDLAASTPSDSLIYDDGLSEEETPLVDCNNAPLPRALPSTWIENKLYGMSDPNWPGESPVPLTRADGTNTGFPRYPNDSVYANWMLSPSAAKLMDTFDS
Experimental: Two variants (FM9+Fc_hole, FM11+Fc_hole) were compared and evaluated for GDF15 activity depending on the linker type and length. The GDF15 activity was measured using a Bright-Glo™ luciferase assay kit (Promega) and a GFRAL/RET/SRE-luc-overexpressing HEK293 cell line (Human embryonic kidney 293).
Specifically, 1×10^5 GFRAL/RET/SRE-luc-overexpressing HEK293 cells were dispended in DMEM containing 10% FBS in each well of a 96-well-plate, followed by culture at 37° C. and 5% CO2 for 24 hours. After 24 hours, each medium of the 96-well plate was replaced with 50 μl of a serum-free medium, followed by culture at 37° C. and 5% CO2 for 4 hours.
In addition, the long-acting GDF15 fusion protein produced in Example 1 was prepared by 3-fold serial dilution from a concentration of 2000 nM using a serum-free medium. Thereafter, 50 μl of the long-acting GDF15 fusion protein dilution was added to each well containing 50 μl of the replaced serum-free medium and the GERAL/RET/SRE-luc cell line so that the actual concentration thereof was serially diluted 3-fold from 1000 nM, followed by reaction at 37° C. and 5% CO2 for 4 hours. After 4 hours, each well was treated with 100 μl of a Bright-Glo™ solution prepared by adding a Bright-Glo™ buffer to a Bright-Glo™ substrate, followed by reaction at room temperature for 1 minute.
Thereafter, the reaction value (relative light units, RLU) was measured using a microplate reader (Perkin Elmer, Wallac Victor X5) capable of measuring luminescence. The results thereof are shown in Table 2 below and in FIGS. 1 and 2. Here, the functional activity of the long-acting GDF15 fusion protein depending on the GDF15 sequence, linker type, and length was compared based on the in-vitro GDF15 activity of FM9-6+Fc_hole (Emax 100%).

[2] = Anti-obesity effect alone and in combination with semaglutide in diet-induced obese (DIO) mice (Example 4); type: in vivo; settings: for Change in body weight (%) vs. day 0, Maximum efficacy: 8 weeks
Description: Diet-induced obese (DIO) mice, obtained by feeding mice with high-fat food, are characterized by obesity, hyperglycemia, and insulin resistance. Diet-induced obese mice (Taconic, USA) resulting from feeding C57BL/6N mice with high-fat food (60 kcal % fat, Research Diets, Cat #D12492, USA) for 8 weeks were purchased from Raon Bio (Animal Inc., Republic of Korea). The diet-induced obese mice were additionally fed with 60% high-fat food for 5 weeks after arrival, and then used in the present test. On the day before drug treatment, the mice were grouped based on the average body weight of individual mice (n=6 per group), after which 10 and 30 nmol/kg of FM9-6+Fc_hole alone, 10 and 30 nmol/kg of semaglutide (long-acting GLP-1 derivative, SEQ ID NO: 114) alone as a control drug, and FM9-6+Fc_hole and semaglutide were administered subcutaneously every 2 days (Q2D) for a total of 8 weeks in a combination of 10+10 and 30+30 nmol/kg. The semaglutide that was used in the test was Ozempic® (semaglutide) from Novo NorDisk. Here, for vehicle treatment, DPBS (Dulbecco's phosphate-buffered saline, Gibco, USA) was subcutaneously administered every 2 days (Q2D). Body weight was measured every 2 days from the first day of drug treatment to day 54, and the results thereof are shown in Table 4 below.

[3] = Anti-obesity and metabolic parameter effects alone and in combination with large dose of semaglutide in ob/ob mice (Example 6); type: in vivo; settings: 1 nmol/kg s.c. Q3D
Description: 5-week-old male ob/ob mice (Jackson Laboratory, USA) were purchased from Raon Bio (Animal Inc., Republic of Korea). The ob/ob mice were acclimatized with normal chow or normal chow diet (Teklad Certified Irradiated Global 18% Protein Rodent Diet, 2918C, Harlan Co., USA) for 5 weeks, and drug treatment was started at 10 weeks of age. On the day before drug treatment, the mice were grouped based on the body weight of individual mice and random blood glucose levels determined by sampling at the tail vein (n=6 per group). Thereafter, 1 nmol/kg of FM9-6+Fc_hole alone, 30 nmol/kg of semaglutide alone, and FM9-6+Fc_hole and semaglutide in combination (1+30 nmol/kg) were subcutaneously administered thereto a total of 9 times every 3 days (Q3D), and body weight, food intake, and non-fasting blood glucose were measured every day or every 3 days during the experimental period (24 days). Here, DPBS (Dulbecco's phosphate-buffered saline, Gibco, USA) was administered for vehicle treatment.

[4] = Inhibitory effect on gastric emptying (acetaminophen exposure) in normal rats (Example 8); type: in vivo; settings: for AUClast of acetaminophen (μg · min/mL), 3 hr / AUClast of acetaminophen (μg · min/mL), 24 hr / AUClast of acetaminophen (μg · min/mL), 72 hr: rats; for AUClast of acetaminophen (μg · min/mL), 3 hr: acetaminophen 3 hr after dose; for AUClast of acetaminophen (μg · min/mL), 24 hr: acetaminophen 24 hr after dose; for AUClast of acetaminophen (μg · min/mL), 72 hr: acetaminophen 72 hr after dose
Experimental: Therefore, this example was performed to investigate the inhibitory effect on gastric emptying when the novel long-acting GDF15 fusion protein was administered at the doses equal to the effective dose, higher than the maximum effective dose, or in combination with a GLP-1 receptor agonist to rats. 6-week-old male SD rats (Orient Bio, Republic of Korea) were purchased from Hallym Lab. Animal Inc., Republic of Korea. Animals were acclimated for 7 days. On the day of drug administration, the rats were grouped based on the average body weight of individual rats (n=5 per group) and fasted for at least 6 hours before oral administration of acetaminophen. Then, 0.1, 1, and 10 nmol/kg of FM9-6+Fc_hole, 10 nmol/kg of semaglutide (long-acting GLP-1 derivative, SEQ ID NO: 114), and combination of FM9-6+Fc_hole and semaglutide (1+10 nmol/kg) were subcutaneously administered. The semaglutide was Ozempic® (semaglutide) from Novo NorDisk. As a negative control drug, D-PBS (normal vehicle) was subcutaneously administered, and as a positive control drug, 30 mg/kg of loperamide was orally administered 45 minutes before acetaminophen administration. On 3, 24 and 72 hours after a single dose of the test articles, acetaminophen was orally administered at 100 mg/kg to rats, and blood samples were collected before and at 30, 60, 90, 120 and 150 minutes after acetaminophen administration. The plasma concentration of acetaminophen was analyzed, and the pharmacokinetic profiles and the systemic exposures of acetaminophen were compared to evaluate the inhibitory effect on gastric emptying among the groups.

FM9-6 + Fc_hole: long-acting GDF15 fusion protein (dimer): GDF15 ΔN2, S64R, IgG1 Fc_knob/Fc_hole, linker GS(EAAAK)5; SEQ ID NOs: 103 and 47
Emax (%) [1]: 100.0% | Change in body weight (%) vs. day 0, Maximum efficacy ([2]; 10 nmol/kg s.c. Q2D): −34.57 (On Day 54)**** % | Change in body weight (%) vs. day 0, Efficacy on Day 54 ([2]; 10 nmol/kg s.c. Q2D): −34.57**** % | Change in body weight (%) vs. day 0, Maximum efficacy ([2]; 30 nmol/kg s.c. Q2D): −35.07 (On Day 54)**** % | Change in body weight (%) vs. day 0, Efficacy on Day 54 ([2]; 30 nmol/kg s.c. Q2D): −35.07**** % | Change in body weight (%) vs. ob/ob control, Efficacy on Day 24 [3]: −23.37**** % | Mean of random blood glucose levels (mg/dL), Efficacy on Day 24 [3]: 116.2**** mg/dL | AUClast of acetaminophen (μg · min/mL), 3 hr ([4]; 0.1 nmol/kg s.c. single dose): 1873.02 µg·min/mL | AUClast of acetaminophen (μg · min/mL), 24 hr ([4]; 0.1 nmol/kg s.c. single dose): 2652.42 µg·min/mL | AUClast of acetaminophen (μg · min/mL), 72 hr ([4]; 0.1 nmol/kg s.c. single dose): 3054.78 µg·min/mL | AUClast of acetaminophen (μg · min/mL), 3 hr ([4]; 1 nmol/kg s.c. single dose): 2615.40 µg·min/mL | AUClast of acetaminophen (μg · min/mL), 24 hr ([4]; 1 nmol/kg s.c. single dose): 1878.30 µg·min/mL | AUClast of acetaminophen (μg · min/mL), 72 hr ([4]; 1 nmol/kg s.c. single dose): 3526.86 µg·min/mL | AUClast of acetaminophen (μg · min/mL), 3 hr ([4]; 10 nmol/kg s.c. single dose): 1497.84 µg·min/mL | AUClast of acetaminophen (μg · min/mL), 24 hr ([4]; 10 nmol/kg s.c. single dose): 2385.36 µg·min/mL | AUClast of acetaminophen (μg · min/mL), 72 hr ([4]; 10 nmol/kg s.c. single dose): 3100.59 µg·min/mL | gastric emptying (in words) ([4]; rats, 0.1, 1, and 10 nmol/kg, 3, 24, and 72 hours after administration): did not affect gastric emptying
